What was measured:
MTB-PPX1 (Rv0496) [1] = molecular target: T1, MTB-PPX1 (Rv0496) (Mycobacterium tuberculosis, UniProt P9WHV5)
Rv1026 = molecular target: T2, Rv1026 (Mycobacterium tuberculosis, UniProt P96374)
T2 construct: gene ppx2

MTB-PPX1 (Rv0496) [2] = molecular target: T1, MTB-PPX1 (Rv0496); remark: listed apart in the source

T1 sequence (P9WHV5 whole entry): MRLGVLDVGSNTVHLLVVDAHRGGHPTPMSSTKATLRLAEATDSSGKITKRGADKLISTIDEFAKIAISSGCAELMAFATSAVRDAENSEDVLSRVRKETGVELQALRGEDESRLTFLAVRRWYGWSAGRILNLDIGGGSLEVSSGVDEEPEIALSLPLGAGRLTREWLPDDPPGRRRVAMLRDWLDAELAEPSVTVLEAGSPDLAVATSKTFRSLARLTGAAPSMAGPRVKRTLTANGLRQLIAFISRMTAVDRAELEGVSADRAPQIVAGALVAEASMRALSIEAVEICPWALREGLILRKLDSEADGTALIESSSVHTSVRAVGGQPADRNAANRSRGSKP
T2 sequence (P96374 whole entry): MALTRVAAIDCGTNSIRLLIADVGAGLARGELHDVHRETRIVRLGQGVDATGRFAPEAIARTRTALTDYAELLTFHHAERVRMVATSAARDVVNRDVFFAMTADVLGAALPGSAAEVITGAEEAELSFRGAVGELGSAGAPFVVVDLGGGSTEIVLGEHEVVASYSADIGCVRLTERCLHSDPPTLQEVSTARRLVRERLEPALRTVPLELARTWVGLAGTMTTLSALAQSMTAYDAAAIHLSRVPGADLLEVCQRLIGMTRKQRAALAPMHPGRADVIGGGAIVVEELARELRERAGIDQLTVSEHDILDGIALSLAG

Structure (SMILES)	Exopolyphosphatase activities / +1 mM ppGpp / (% decrease) / ATPase activities (MTB-PPX1 (Rv0496) [1])	Exopolyphosphatase activities / +1 mM pppGpp / (% decrease) / ATPase activities (Rv1026)	Exopolyphosphatase activities / +1 mM pppGpp / (% decrease) / ATPase activities (MTB-PPX1 (Rv0496) [2])
Nc1nc2c(ncn2[C@@H]2O[C@H](COP(=O)(O)OP(=O)(O)O)[C@@H](OP(=O)(O)OP(=O)(O)O)[C@H]2O)c(=O)[nH]1 [ppGpp, guanosine 3′,5′-bisdiphosphate]	5.9±0.7%	–	–
Nc1nc2c(ncn2[C@@H]2O[C@H](COP(=O)(O)OP(=O)(O)OP(=O)(O)O)[C@@H](OP(=O)(O)OP(=O)(O)O)[C@H]2O)c(=O)[nH]1 [pppGpp, guanosine 5′-triphosphate, 3′-diphosphate]	–	32.3±9.4%	37.9±6.7%
